Patent publication US9247742B2 (priority 2012, dated 2016)
Where two headings read alike, the source gives them in different places.

Tests used:
[1] = test system: Magnaporthe oryzae; type: in vivo; conditions: 1-day protective; for B % DC: component B alone; for A % DC: component A (777) alone
[2] = test system: Magnaporthe oryzae; type: in vivo; conditions: 1-day curative/protective; for B % DC: component B alone; for A % DC: component A (777) alone

For `CO/C=C(/C(=O)OC)c1ccccc1Oc1cc(Oc2ccccc2C#N)ncn1` [Azoxystrobin, methyl (αE)-2-[[6-(2-cyanophenoxy)-4-pyrimidinyl]oxy]-α-(methoxymethylene)benzeneacetate], the “B % DC” value ([1]; Rate B 0.025 ai ppm) was 9%, the “B % DC” value ([1]; Rate B 0.1 ai ppm) was 19% and the “B % DC” value ([1]; Rate B 0.4 ai ppm) was 30%. The “B % DC” value ([1]; Rate B 1.56 ai ppm) was 0%.
For `O=C(Nc1ccccc1-c1ccc(Cl)cc1)c1cccnc1Cl` [Boscalid, 2-chloro-N-(4′-chloro[1,1′-biphenyl]-2-yl)-3-pyridinecarboxamide], the “B % DC” value ([2]; Rate B 400 ai/ppm) was 69%.
In the case of `CCC1(C(=O)NC(C)c2ccc(Cl)cc2)C(C)C1(Cl)Cl` (stereo not drawn) [Carpropamid, 2,2-dichloro-N-[1-(4-chlorophenyl)ethyl]-1-ethyl-3-methylcyclopropanecarboxamide], the “B % DC” value ([1]; Rate B 0.1 ai ppm) was 2% and the “B % DC” value ([1]; Rate B 0.4 ai ppm) was 23%.
`C[C@H]1O[C@H](O[C@H]2[C@H](O)[C@@H](O)[C@@H](O)[C@H](O)[C@@H]2O)[C@@H](N)C[C@@H]1NC(=N)C(=O)O` [Kasugamycin, 3-O-[2-amino-4-[(carboxylminomethyl)amino]-2,3,4,6-tetradeoxy-α-D-arabino-hexopyranosyl]-D-chiro-inositol] was tested, and the “B % DC” value ([2]; Rate B 1.56 ai/ppm) was 69%, the “B % DC” value ([2]; Rate B 6.25 ai/ppm) was 68% and the “B % DC” value ([2]; Rate B 25 ai/ppm) was 74%.
With `C=CCOC1=NS(=O)(=O)c2ccccc21` [Probenazole, 3-(2-propenyloxy)-1,2-benzisothiazole 1,1-dioxide] the “B % DC” value ([2]; Rate B 3.12 ai/ppm) was 69% and the “B % DC” value ([2]; Rate B 12.5 ai/ppm) was 78%.
With `Cc1cccc2sc3nncn3c12` [Tricyclazole, 5-methyl-1,2,4-triazolo[3,4-b]benzothiazole] the “B % DC” value ([1]; Rate B 0.025 ai ppm) was 0%, the “B % DC” value ([1]; Rate B 0.1 ai ppm) was 0% and the “B % DC” value ([1]; Rate B 0.4 ai ppm) was 23%. For the same compound, the “B % DC” value ([2]; Rate B 0.1 ai/ppm) was 71%.
`COc1ccnc(C(=O)N[C@H]2COC(=O)[C@H](Cc3ccccc3)[C@@H](OC(=O)C(C)C)[C@H](C)OC2=O)c1OCOC(=O)C(C)C` [compound 777] was tested, and the “A % DC” value ([1]; Rate A 0.025 ai ppm) was 0%, the “A % DC” value ([1]; Rate A 0.1 ai ppm) was 21% and the “A % DC” value ([1]; Rate A 0.25 ai ppm) was 0%. The “A % DC” value ([1]; Rate A 0.4 ai ppm) was 61%, the “A % DC” value ([2]; Rate A 0.1 ai/ppm) was 28% and the “A % DC” value ([2]; Rate A 0.4 ai/ppm) was 50%. For the same compound, the “A % DC” value ([2]; Rate A 1.56 ai/ppm) was 67% and the “A % DC” value ([2]; Rate A 6.25 ai/ppm) was 81%.
